# From the supplement of paper PMC10878532, “Sperm Toolbox—A selection of small molecules to study human spermatozoa” (PLOS ONE, 2024)
# Structures can show the parent of a compound that is named as a salt.
# Legend:
# human spermatozoa [1] = assay: viability fold change, 1 - (PI-positive fraction / DMSO median); higher = more of the measured sperm population than DMSO, for viability, fewer PI-positive (dead) cells than DMSO; details: incubation time: 3h, non-capacitating
# human spermatozoa [2] = assay: total motile sperm, percent change vs DMSO (non-capacitating); higher = more of the measured sperm population than DMSO, for viability, fewer PI-positive (dead) cells than DMSO
# HeLa [3] = assay: HeLa toxicity: nuclei-count effect normalised to DMSO (DMSO = 0); higher = more features changed / larger toxic effect; details: incubation time: 24h incubation
# human spermatozoa [4] = assay: progressively motile sperm, percent change vs DMSO (capacitating); higher = more of the measured sperm population than DMSO, for viability, fewer PI-positive (dead) cells than DMSO; details: incubation time: 30min incubation
# human spermatozoa [5] = assay: acrosome-reacted (PNA+) sperm after agonist cocktail, percent change vs DMSO (capacitating); higher = more of the measured sperm population than DMSO, for viability, fewer PI-positive (dead) cells than DMSO; details: incubation time: 3h, capacitating + agonist cocktail 1h
# human spermatozoa [6] = assay: change in acrosome-reacted (PNA+) sperm vs DMSO, no agonist (capacitating); higher = more of the measured sperm population than DMSO, for viability, fewer PI-positive (dead) cells than DMSO; details: incubation time: 3h
# human spermatozoa [7] = assay: hyperactivated motile sperm, percent change vs DMSO (capacitating); higher = more of the measured sperm population than DMSO, for viability, fewer PI-positive (dead) cells than DMSO; details: incubation time: 30min incubation
# human spermatozoa [8] = assay: progressively motile sperm, percent change vs DMSO (non-capacitating); higher = more of the measured sperm population than DMSO, for viability, fewer PI-positive (dead) cells than DMSO; extreme values may be limits of the assay
# HeLa [9] = assay: Cell Painting percent induction (share of features beyond 2 z-scores vs DMSO); higher = more features changed / larger toxic effect; extreme values may be limits of the assay; details: incubation time: 24h incubation
# HepG2 = HepG2 toxicity (resazurin), effect normalised to DMSO (DMSO = 0); higher = more features changed / larger toxic effect; details: incubation time: 70h incubation
# [10] = incubation time: 10min incubation, 9.99 µM
# [11] = incubation time: 10min incubation, 29.9 µM
# [12] = incubation time: 3h incubation, 9.99 µM
# [13] = incubation time: 3h incubation, 29.9 µM
# [14] = incubation time: 6h incubation, 9.99 µM
# [15] = incubation time: 6h incubation, 29.9 µM
# 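Wherever progressively motile sperm, percent change vs DMSO (non-capacitating) is given: pooled live human sperm from at least 3 donors, tracked by automated microscopy in 0.5 s time-lapse movies, compounds at 10 and 30 µM, versus median of 16 DMSO wells per plate.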
# 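Wherever total motile sperm, percent change vs DMSO (non-capacitating) is given: sperm pooled from at least 3 donors, tracked in 0.5 s time-lapse movies by automated microscopy after 10 min, 3 h or 6 h with compound at 10 or 30 µM.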
SMILES,viability fold change (human spermatozoa [1]; 9.99 µM),viability fold change (human spermatozoa [1]; 29.9 µM),total motile sperm (human spermatozoa [2]; [10]),total motile sperm (human spermatozoa [2]; [11]),total motile sperm (human spermatozoa [2]; [12]),total motile sperm (human spermatozoa [2]; [13]),total motile sperm (human spermatozoa [2]; [14]),total motile sperm (human spermatozoa [2]; [15]),HeLa toxicity: nuclei-count effect normalised (HeLa [3]; 9.99 µM),HeLa toxicity: nuclei-count effect normalised (HeLa [3]; 29.9 µM),progressively motile sperm (human spermatozoa [4]; 9.99 µM),progressively motile sperm (human spermatozoa [4]; 29.9 µM),acrosome-reacted (human spermatozoa [5]; 9.99 µM),acrosome-reacted (human spermatozoa [5]; 29.9 µM),change in acrosome-reacted (human spermatozoa [6]; 9.99 µM),change in acrosome-reacted (human spermatozoa [6]; 29.9 µM),hyperactivated motile sperm (human spermatozoa [7]; 9.99 µM),hyperactivated motile sperm (human spermatozoa [7]; 29.9 µM),progressively motile sperm (human spermatozoa [8]; [10]),progressively motile sperm (human spermatozoa [8]; [11]),progressively motile sperm (human spermatozoa [8]; [12]),progressively motile sperm (human spermatozoa [8]; [13]),progressively motile sperm (human spermatozoa [8]; [14]),progressively motile sperm (human spermatozoa [8]; [15]),Cell Painting percent induction (HeLa [9]; 9.99 µM),Cell Painting percent induction (HeLa [9]; 29.9 µM),HepG2 toxicity (HepG2; 10 µM),HepG2 toxicity (HepG2; 30 µM)
CNS(=O)(=O)c1ccccc1Nc1nc(Nc2ccc(C3CCN(C)CC3)cc2OC)ncc1Cl [Compound 19],-0.353,-1.11,-56.4%,-58.2%,-66.7%,-69.7%,-63.1%,-74.1%,98.9%,97.1%,-48.6%,-61.5%,-19.8%,31.9%,1.02%,5.53%,-80.3%,-81.6%,-91.3%,-92.3%,-90.1%,-93.7%,-90.5%,-96%,51.7%,53.2%,103%,103%
CC(C)c1ccc2c(c1)CC[C@H]1[C@](C)(CN)CCC[C@]21C [Leelamine hydrochloride],-1.89,-2.79,-0.495%,-12.1%,1.52%,-51.7%,-1.74%,-63.5%,88.2%,98.4%,4.41%,-53.6%,41.7%,60.2%,5.38%,14.4%,-31%,-87.5%,15.1%,-12.8%,51.8%,-74.2%,59.5%,-84.3%,25.1%,36.4%,102%,103%
CCCCCCCCCCCCCCCCOCC(COCC(F)(F)F)OP(=O)([O-])OC (stereo unspecified) [MJ33],-0.678,-0.975,2.25%,4.52%,-13.2%,0.791%,-9.12%,-4.03%,6.41%,1%,10.8%,15.1%,6.57%,19.6%,0.541%,1%,21.6%,9.77%,3.5%,11.9%,-6.92%,-2.7%,-4.8%,-4.44%,0%,0.036%,-0.425%,2.58%
C=C[C@@]1(C)CC(=O)[C@@]2(O)[C@](C)(O1)[C@@H](OC(C)=O)[C@@H](O)C1C(C)(C)CC[C@H](O)[C@@]12C (stereo partly specified) [Forskolin],-0.712,-0.989,0.618%,0.675%,-0.0205%,4.68%,-0.697%,-0.227%,-1.74%,-1.47%,7.73%,8.32%,0.165%,-4.34%,0.404%,0.226%,26.6%,5.16%,0.859%,0.86%,3.82%,13.8%,-0.781%,12%,1.19%,0.108%,3.42%,-7.11%
CCOC(=O)CSc1nc(=O)c(NCC(=O)OC)n[nH]1 [Compound B4],-0.743,-0.817,-1.27%,-2.9%,-1.69%,-8.87%,-5.02%,-14.2%,-3.67%,-5.81%,3.54%,-5%,78.6%,102%,0.981%,1.58%,141%,283%,0.38%,-0.636%,7.69%,-26.4%,4.42%,-27.1%,0%,0%,-2.06%,5.66%
CCCCN1C[C@@H](O)[C@H](O)[C@H](O)[C@@H]1CO [Miglustat],-0.2,0.248,-1.47%,0.804%,-1.56%,-0.192%,-5.48%,-3.6%,0.0668%,-3.87%,5.12%,9.04%,-0.571%,-6.96%,-0.0821%,-0.0793%,12.2%,2.46%,-0.816%,3.26%,9.63%,8.04%,8.15%,7.52%,0%,0%,5.75%,-4.38%
NC(=O)c1cccnc1 [Nicotinamid],-0.835,-0.522,0.928%,6.07%,-8.41%,-0.358%,-0.499%,0.662%,–,–,3.35%,13.2%,–,–,–,–,16%,5.44%,15.4%,14.2%,-10.7%,3.29%,0.762%,-3.22%,–,–,–,–
CO[C@H]1[C@@H](OC)C[C@H](C)[C@@H](OC)C2=CC(=O)C=C(NC(=O)/C(C)=C/C=C/[C@H](OC)[C@@H](OC(N)=O)/C(C)=C/[C@@H]1C)C2=O [Herbimycin a],-1.59,-1.04,7.08%,3.19%,-13.6%,-85.1%,-11.7%,-85%,23.2%,37.9%,3.33%,-50.9%,–,–,–,–,-22.2%,-70.4%,11.6%,-9.27%,-37.6%,-100%,-46.3%,-100%,0.216%,0%,101%,103%
CCCCCCOC(=O)[C@]1(O)C[C@@H]2O[C@@]1(C)n1c3ccccc3c3c4c(c5c6ccccc6n2c5c31)C(=O)NC4 [KT 5720],-0.0644,-0.13,-0.664%,-5.21%,5.89%,-0.934%,5.3%,0.422%,-2.2%,9.55%,2.73%,-4.6%,0.89%,0.941%,1.66%,0.54%,5.63%,-20.1%,-3.28%,-15.1%,16.6%,6.24%,29.8%,17.9%,0%,0.072%,–,–
CC(C)(C)c1ccc(S(=O)(=O)Nc2cnc3[nH]c(C(=O)N[C@H]4CCC[C@H]4O)c(-c4ccccc4)c3c2)cc1,0.0771,0.0653,-3.11%,0.824%,2.99%,-0.471%,-0.468%,-0.141%,–,–,-49.7%,-49.4%,-55.5%,-40.6%,0.406%,0.723%,-89.9%,-90.6%,-18.5%,-14%,-13%,-11.7%,-9.71%,-14.5%,–,–,3.81%,16.8%
CC(=O)N1CCC(C(=O)N(CCCN2CCN(Cc3ccc(F)cc3)CC2)c2ccc(C)c(Cl)c2)CC1 [B07 hydrochloride],-0.0249,-0.378,-3.45%,-1.62%,-0.778%,-4.4%,-2.31%,-8.75%,-8.22%,-2.4%,2.3%,5.54%,-7.75%,-16.6%,-0.33%,-0.655%,4.68%,-29.9%,-0.531%,-2.62%,3.74%,-2.22%,13.9%,-0.382%,0%,0%,–,–
CCS(=O)(=O)Nc1ccc2c(c1)/C(=C(/Nc1ccc(CN3CCCCC3)cc1)c1ccccc1)C(=O)N2 [Hesperadin hydrochloride],-0.123,-0.0637,-7.06%,-8.13%,-15.5%,-16.9%,-15.3%,-19%,84.4%,96.7%,-13.4%,-15.1%,-34.6%,-37.5%,0.15%,1.01%,-68.7%,-76%,-47.3%,-48.7%,-44.8%,-57.8%,-44.4%,-55.4%,19.1%,29.9%,–,–
Cc1ccc(S(=O)(=O)c2c(N)n(CC(O)c3ccc([N+](=O)[O-])cc3)c3nc4ccccc4nc23)cc1 (stereo unspecified),-0.179,0.2,1.39%,2.71%,1.22%,-9.75%,-1.06%,-11.3%,9.49%,44.6%,7.62%,16.1%,22.3%,49.7%,0.985%,1.51%,2.52%,-33%,8.38%,7.14%,40.6%,20.1%,45.4%,24.6%,0.072%,0.648%,–,–
c1cnc2c(c1)ccc1cccnc12 [Phenanthroline],0.0432,-0.258,-2.32%,-4.26%,3.46%,-8.46%,-1.8%,-11.3%,46%,43%,10.3%,16.3%,8.37%,9.76%,0.27%,0.435%,18.4%,17.2%,-0.0696%,-0.36%,1.8%,-21.2%,-1.34%,-23.3%,1.08%,1.15%,–,–
O=C(N1CCCCC1)N1CCCCC1Cc1ccccc1 (stereo unspecified),0.104,-0.0769,-0.235%,4.54%,-3.63%,0.0877%,-4.64%,-4.36%,-3.81%,-5.74%,9.35%,20.1%,6.47%,7.82%,–,–,6.11%,3.93%,-0.571%,5.81%,19.1%,18.1%,17.3%,16.4%,0%,0%,5.44%,-4.3%
C[C@@H]1O[C@@H](O[C@H]2C[C@@H](O)[C@]3(CO)[C@H]4[C@H](O)C[C@]5(C)[C@@H](C6=CC(=O)OC6)CC[C@]5(O)[C@@H]4CC[C@]3(O)C2)[C@H](O)[C@H](O)[C@H]1O [Ouabain],–,–,–,–,–,–,–,–,72.1%,70.1%,–,–,–,–,–,–,–,–,–,–,–,–,–,–,0.54%,0.324%,94.6%,93.2%
N=C(N)Nc1nc2ccccc2[nH]1 [2-Guanidinobenzimidazole],-1.37,-0.849,0.879%,-2.57%,1.34%,-1.87%,1.24%,-6.01%,1.07%,-4.21%,0.502%,7.48%,-0.796%,-2.33%,–,–,-8.85%,-1.69%,3.14%,0.263%,13%,14%,18.7%,6.54%,0%,0.036%,7.28%,-2.48%
CC(C)(C)c1ccc(S(=O)(=O)Nc2ccc(OC(F)(F)F)c(F)c2-c2ccc(C(=O)O)c3ncccc23)cc1F [CCR6 inhibitor],-0.213,-0.279,2.36%,5.45%,-5.06%,-0.0893%,-5.81%,-4.71%,–,–,3.94%,10.4%,4.58%,-1.79%,0.627%,0.716%,12.5%,-21%,4.23%,5.16%,7.86%,2.54%,7.11%,-7.05%,–,–,2.54%,-7.66%
